Test results published in US20020058708A1, “Compositions containing hypotriglyceridemically active stilbenoids” (priority 2000, published 2002).

Columns and labels:
[1] = reported by Arichi et al. 1982; cited from earlier work
[2] = Daily mean body weight of treated fat fed, STZ treated rats; assay type: in vivo, rat; details: 250 mg/kg q.d.; FIG. 3
Procedure: FIG. 3 is a line graph showing the mean body weight […] in fat fed, STZ treated rats administered with GELUCIRE™ vehicle only; and 3-hydroxy-4-(3-methyl-2-butenyl)-5-methoxystilbene-2-carboxylic acid (Compound A). -∘- represents vehicle; and -▪- represents Compound A administered at 250 mg/kg q.d. Animals were administered the vehicle and compounds at 24, 48, 72 and 96 h, and serum triglyceride levels were measured at 0, 30, 51, 54, 75 and 80 hours after the oral administration. All data points N=8. *P<0.05 (analysis of variance (ANOVA), one factor).
(§1) Male Sprague Dawley rats arrival from Charles River Laboratories, Hollister, Calif., were fed a high fat (20% by weight) diet (TD 78463) obtained from Harlan Teklad, Madison, Wis., which was stored at 4° C. prior to use. Administration of a high fed diet is a well-known method of inducing hypertriglyceridemia in rats.
(§2) Compound A formulations were prepared fresh daily. The appropriate amount of Compound A in GELUCIRE™ was administered by oral gavage at a volume of 2.5 ml/kg of body weight. Animals were fasted at 8:00 am each day.

[3] = Daily mean food consumption of treated fat fed, STZ treated rats; assay type: in vivo, rat; details: 250 mg/kg q.d.; FIG. 4
Procedure: FIG. 4 is a line graph showing the mean food consumption (mg) in fat fed, STZ treated rats administered with GELUCIRE™ vehicle only; and 3-hydroxy-4-(3-methyl-2-butenyl)-5-methoxystilbene-2-carboxylic acid (Compound A). -∘- represents vehicle; and -▪- represents Compound A administered at 250 mg/kg q.d. Animals were administered the vehicle and compounds at 24, 48, 72 and 96 h, and serum triglyceride levels were measured at 0, 30, 51, 54, 75 and 80 hours after the oral administration. All data points N=8. *P<0.05 (analysis of variance (ANOVA), one factor).
as §1, §2

[4] = tested on: fat fed, STZ treated male Sprague Dawley rats; assay: In vivo hypotriglyceridemic activity: serum triglyceride levels in fat-fed STZ treated rats; parameters: species or system rat; details: 250 mg/kg body weight q.d.
Excerpt: This example illustrates the effectiveness of the stilbenoids of formula (I) in reducing serum triglyceride levels in fat-fed STZ treated male Sprague Dawley rats, i.e., an art-recognized model of hypertriglyceridemia.
This example illustrates the effectiveness of the stilbenoids of formula (I), e.g. longistyline A-2-carboxylic acid (Compound A) in reducing serum triglyceride levels in fat fed, STZ treated male Sprague Dawley rats, i.e., an art recognized model of hypertriglyceridemia. […]
Blood samples from tail snips bleeds were collected six hours after the dose on day one, and three (3) and six (6) hours after the administration of the dose on days 2 through 4 into M brand (Becton Dickinson, Franklin Lakes, N.J.) serum separator tubes, and centrifuged at 12,000 rpm for 10 minutes. Serum was removed and triglyceride levels were measured using enzymatic […] methods (M. W. McGowan, et al., Clin. Chem. 29, 538 (1983) and P Trinder, Ann. Clin. Biochem. 6, 24 (1969)) using Sigma Diagnostic Kits, Sigma Chemical Company, St. Louis, Mo.
Triglyceride levels are expressed as the mean ±SEM. Data were analyzed by one-way analysis of variance (ANOVA), followed by post-hoc Fisher's protected least squares difference (PLSD) tests. […]

SMILES | Serum triglyceride levels [1] | Gain in rat body weight over the course of treatment [2] | Food intake (daily mean food consumption) [3] | Serum triglyceride (TG) levels compared with vehicle only ([4]; oral gavage in GELUCIRE vehicle, at each of the time points, p<0.05, FIG. 2) | Mean TG levels compared with GELUCIRE vehicle treatment group at individual sampling times ([4]; from day 2 through the end of treatment) | Liver lipid levels [1]
OC[C@H]1OC(Oc2c(O)cc(O)cc2C=Cc2ccc(O)cc2)[C@H](O)[C@@H](O)[C@@H]1O (stereo partly drawn) [2,3,5,4′-tetrahydroxy stilbene-2-O-D-glucoside] | reduce | – | – | – | – | –
COc1cc(/C=C/c2ccccc2)c(C(=O)O)c(O)c1CC=C(C)C [Compound A, 3-hydroxy-4-(3-methyl-2-butenyl)-5-methoxystilbene-2-carboxylic acid] | – | normal and similar among the treatment groups | not effected by the treatments | significantly lower | significantly lower | –
OC[C@H]1O[C@@H](Oc2cc(O)cc(/C=C/c3ccc(O)cc3)c2)[C@H](O)[C@@H](O)[C@@H]1O [Piceid, 3,4′,5-trihydroxystilbene-3-O-β-D-glucopyranoside] | lower | – | – | – | – | lower
